Here are results for five compounds from patent EP0369083A1, “Cardioprotective tocopherol analogs” (MERRELL DOW PHARMACEUTICALS INC., priority 1988, dated 1990).

Data set [1] deals with ligation-induced infarcted and reperfused rats. Put plainly: Cardioprotective effects: coronary ligation 60 min and reperfusion 30 min, infarcted area versus area at risk. In kind it is in vivo. How it is done:
2-(3,4-Dihydro-2,5,7,8-tetramethyl-6-methyl-carbonyloxy-2H-1-benzopyran-2-yl) ethyl-N,N,N-trimethyl-ammonium bromide was evaluated in ligation-induced infarcted and reperfused rats as follows. One of two groups of rats was infused intravenously with a solution of test compound in saline at a rate of 2.3 ml/h (10 mg/kg/h). The control group was infused with saline at the same rate. After 10 min of drug infusion, coronary arteries were ligated surgically for 60 min, ligation was loosened to allow reperfusion for 30 min. The ligation was retied and a dye (Evans Blue) was injected. The animals were sacrificed and the heart ventricles were removed and weighed. The unstained tissue was dissected and weighed; this represents the "area at risk", i.e. the area that was deprived of blood supply by ligation. To determine the infarcted area, the tissue was incubated with 2,3,5-triphenyltetrazolium chloride. Infarcted tissue became light colored and could be dissected and weighed. Thus, for each rat that survived the ligation a measurement of "area at risk" and of "infarcted area" was obtained and the ratio was calculated as given in Tables II and III.

Data set [2] in a line: Free radical scavenging: inhibition of autoxidation of 1-epinephrine (Misra and Fridovich assay). The format is biochemical. To be noted: 1-epinephrine 1 x 10⁻⁴M, EDTA 1 x 10⁻⁴M, 30°C, absorbance at 480 nm; read-out: 50% inhibition of the autoxidation rate (ID₅₀). How it is done: 2-(3,4-dihydro-6-hydroxy-2,5,7,8-tetramethyl-2H-1-benzopyran-2-yl)ethyl-N,N,N-trimethylammonium bromide, described in Example 1, was evaluated for its ability to reduce superoxide radicals in an assay described by H.P. Misra and J. Fridovich, 1972, J. Biol. Chem. 247, 3170-5. In this assay, the rate of autoxidation of 1-epinephrine (1 x 10⁻⁴M) in the presence of EDTA (1 x 10⁻⁴M) at 30°C is followed spectrophotometrically following the increase of absorbance at 480 mn. […] For comparison, 3,4-dihydro-6-hydroxy-2,5,7,8-tetramethyl-2H-1-benzopyran -2-carboxylic acid (CAS 53188-07-1) gave ID₅₀ = 105 ± 8 µM and d,1-penicillamine (CAS 52-67-5) ID₅₀ = 73 µM in parallel experiments. Misra and Fridovich report that bovine superoxide dismutase gave 50% inhibition at […].

The nature of data set [3]: Affinity for cardiac tissue: radioactivity in heart and blood after intravenous 14C-labelled compound. The format is in vivo. More on the design: ng equiv/g heart: unit not given here. To be noted: rats, 0.91 mg base/kg intravenous. As for the experimental part:
Following the procedure described in Example 1, but using ¹⁴C-methyl p-toluenesulfonate in place of "cold material", ¹⁴C-labelled 2-(3,4-dihydro-2,5,7,8-tetramethyl-6-methylcarbonyloxy-2H-1-benzopyranan-2-yl)ethyl-N,N,N-tri-¹⁴C-methylammonium p-toluenesulfonate was synthesized. The preparation was diluted with "cold material" to 11.74 µCi/mg base.
24 rats were given 0.91 mg base/kg by intravenous route (by canula into the jugular vein). The animals were sacrificed in groups of 3 at the time periods indicated in Table I. Immediately before sacrifice a 0.5 ml blood sample was taken from an indwelling catheter in the carotid artery. The hearts were removed, blotted and weighed. The samples of tissue and blood were solubiized with Luma Solve (a quaternary ammonium hydroxide preparation) and radioactivity was determined in a scintillation counter.

Where [4] appears, read: treated group, 10 mg/kg/h intravenous infusion, individual rats No. 1-10, 10 mg/kg.

Molecules are shown by their SMILES. Where “and” joins values, the source holds several entries; their conditions need not be identical. Identical values can stand only once.

Consider `CC(=O)Oc1c(C)c(C)c2c(c1C)CCC(C)(CC[N+](C)(C)C)O2.[Br-]` (stereo not drawn) [Example 2, 2-(3,4-Dihydro-2,5,7,8-tetramethyl-6-methylcarbonyloxy-2H-1-benzopyran-2-yl)ethyl-N,N,N-trimethylammonium bromide], for which the reduction of infarction in data set [1] (treated (10 mg/kg/h) versus saline control, statistically significant (ANOVA) at p = 0.02) amounted to 42.7%. Also, in data set [1] (treated group, 10 mg/kg/h intravenous infusion, average of 10 rats, control group 83.31, 10 mg/kg), the “Ratio % (infarcted tissue / tissue at risk), average” value was 47.8% and 47.75%. In addition, in data set [1] (setting [4]), the “Infarcted tissue,mg” value was 23 mg and 27 mg and 299 mg and 39 mg and 33 mg and 247 mg and 193 mg and 134 mg and 123 mg and 157 mg; the “Ratio % (infarcted tissue / tissue at risk)” value was 45.2% and 9.4% and 97.5% and 15.5% and 18.9% and 64.8% and 62.1% and 64.5% and 31.2% and 68.4%.

On to `Cc1c(C)c2c(c(C)c1O)CCC(C)(C(=O)O)O2` (stereo not drawn) [3,4-dihydro-6-hydroxy-2,5,7,8-tetramethyl-2H-1-benzopyran-2-carboxylic acid], for which, in data set [2], the IC50 came to 105 ± 8 µM.

`CC(C)(S)[C@@H](N)C(=O)O` [d,1-penicillamine]: the IC50 in data set [2] amounted to 73 µM.

Take `Cc1c(C)c2c(c(C)c1O)CCC(C)(CC[N+](C)(C)C)O2` (stereo not drawn) [Example 1, 2-(3,4-Dihydro-6-hydroxy-2,5,7,8-tetramethyl-2H-1-benzo-pyran-2-yl)ethyl-N,N,N-trimethylammonium bromide]: the IC50 in data set [2] was found to be 138 ± 14 µM.

For the compound `CC(=O)Oc1c(C)c(C)c2c(c1C)CCC(C)(CC[N+](C)(C)C)O2.Cc1ccc(S(=O)(=O)[O-])cc1` (stereo not drawn) [Example 9, 2-(3,4-Dihydro-2,5,7,8-tetramethyl-6-methylcarbonyloxy-2H-1-benzopyran-2-yl)ethyl-N,N,N-trimethylammonium p-toluenesulfonate], the Ratio heart/blood in data set [3] (5 min after administration) is 3.05 ± 1.46; in data set [3] (15 min after administration), 6.90 ± 8.34; in data set [3] (30 min after administration) it was 17.33 ± 5.42; in data set [3] (1 hour after administration) it was 20.09 ± 2.54; in data set [3] (2 hours after administration), 21.90 ± 3.56; in data set [3] (4 hours after administration (maximum), listed as 2-(3,4-dihydro-2,5,7,8-tetramethyl-6-methylcarbonyloxy-2H-1-benzopyranan-2-yl)et, p-toluenesulfonate), 27.15 and 27.15 ± 4.30. For the same compound, the Ratio heart/blood amounted to 18.62 ± 2.77 in data set [3] (6 hours after administration) and 15.12 ± 2.69 in data set [3] (8 hours after administration). In addition, the ng equiv/g heart in data set [3] (5 min after administration) came to 1.591 ± 0.22; in data set [3] (15 min after administration), 1.728 ± 0.422; in data set [3] (30 min after administration), 1.905 ± 0.278; in data set [3] (1 hour after administration) it was 2.092 ± 0.406; in data set [3] (2 hours after administration), 1.395 ± 0.042; in data set [3] (4 hours after administration), 1.253 ± 0.248. Moreover, the ng equiv/g heart came out at 0.863 ± 0.067 in data set [3] (6 hours after administration) and 0.652 ± 0.116 in data set [3] (8 hours after administration). Also, the ng equiv/ml blood in data set [3] (5 min after administration) stood at 0.434 ± 0.351 ng equiv/ml blood; in data set [3] (15 min after administration), 0.590 ± 0.295 ng equiv/ml blood; in data set [3] (30 min after administration) it was 0.124 ± 0.032 ng equiv/ml blood; in data set [3] (1 hour after administration) it was 0.096 ± 0.008 ng equiv/ml blood; in data set [3] (2 hours after administration) it was 0.086 ± 0.041 ng equiv/ml blood; in data set [3] (4 hours after administration) it was 0.054 ± 0.013 ng equiv/ml blood. Besides, the ng equiv/ml blood turned out to be 0.048 ± 0.007 ng equiv/ml blood in data set [3] (6 hours after administration) and 0.048 ± 0.012 ng equiv/ml blood in data set [3] (8 hours after administration). In addition, the “concentration of drug in heart tissue” value in data set [3] (after 8 h) turned out to be 0.65 µg equiv/g. In addition, the “affinity for heart tissue” value in data set [3] (conclusion in words) is “marked affinity for heart tissue”.
